In ChEMBL document CHEMBL4304757, “Synthetic heterocyclic candidates as promising α-glucosidase inhibitors: An overview” (Eur J Med Chem, 2019):

target: not listed separately; assay: Inhibition of yeast alpha-glucosidase using p-nitrophenyl-alpha-d-glucopyranoside as substrate preincubated for 10 mins followed by substrate addition measured after 30 mins; set-up: species or system Saccharomyces cerevisiae

IC50 [µM] | Structure (SMILES)
2.5 to 46 | O=c1oc2ccccc2cc1-c1nn(-c2ccccc2)cc1-c1nc(-c2ccccc2)c(-c2ccccc2)n1-c1ccc(Br)cc1
8.4 to 9.9 | COc1ccc(/C=N/NC(=O)c2ccc(-c3nc4cc(C)c(C)cc4[nH]3)cc2)c(O)c1
8.4 to 179 | Cc1cc2nc(-c3ccc(C(=O)N/N=C/c4ccc([N+](=O)[O-])cc4)cc3)[nH]c2cc1C
2.5 to 46 | Cc1cc(C)cc(-n2c(-c3cn(-c4ccccc4)nc3-c3cc4cc(Br)ccc4oc3=O)nc(-c3ccccc3)c2-c2ccccc2)c1
8.4 to 9.9 | COc1ccc(O)c(/C=N/NC(=O)c2ccc(-c3nc4cc(C)c(C)cc4[nH]3)cc2)c1
8.4 to 179 | Cc1cc2nc(-c3ccc(C(=O)N/N=C/c4cccc(O)c4)cc3)[nH]c2cc1C
2.5 to 46 | Cc1cc(C)cc(-n2c(-c3cn(-c4ccccc4)nc3-c3cc4ccccc4oc3=O)nc(-c3ccccc3)c2-c2ccccc2)c1
8.4 to 179 | COc1ccc(/C=N/NC(=O)c2ccc(-c3nc4cc(C)c(C)cc4[nH]3)cc2)cc1OC
2.7 to 23 | O=[N+]([O-])c1ccc(-c2nn(-c3ccccc3)cc2-c2nc(-c3ccccc3)c(-c3ccccc3)[nH]2)cc1
2.7 | O=c1oc2ccccc2cc1-c1nn(-c2ccccc2)cc1-c1nc(-c2ccccc2)c(-c2ccccc2)[nH]1
8.4 to 9.9 | Cc1cc2nc(-c3ccc(C(=O)N/N=C/c4cccc(O)c4O)cc3)[nH]c2cc1C
8.4 to 179 | Cc1cc2nc(-c3ccc(C(=O)N/N=C/c4ccc(O)cc4)cc3)[nH]c2cc1C
35 to 297 | Cc1cc2nc(-c3ccc(C(=O)NNC(=S)Nc4ccccc4Br)cc3)[nH]c2cc1C
35 to 297 | Cc1cc2nc(-c3ccc(C(=O)NNC(=S)Nc4ccccc4Cl)cc3)[nH]c2cc1C
2.7 to 23 | c1ccc(-c2ccc(-c3nn(-c4ccccc4)cc3-c3nc(-c4ccccc4)c(-c4ccccc4)[nH]3)cc2)cc1
2.5 | O=c1oc2ccc(Br)cc2cc1-c1nn(-c2ccccc2)cc1-c1nc(-c2ccccc2)c(-c2ccccc2)n1-c1ccc(Cl)cc1
35 to 297 | Cc1cc2nc(-c3ccc(C(=O)NNC(=S)Nc4cccc([N+](=O)[O-])c4)cc3)[nH]c2cc1C
2.7 to 23 | Clc1ccc(-c2nn(-c3ccccc3)cc2-c2nc(-c3ccccc3)c(-c3ccccc3)[nH]2)cc1
2.7 to 23 | Brc1ccc(-c2nn(-c3ccccc3)cc2-c2nc(-c3ccccc3)c(-c3ccccc3)[nH]2)cc1
8.4 to 179 | Cc1cc2nc(-c3ccc(C(=O)N/N=C/c4cccc(F)c4)cc3)[nH]c2cc1C
35 to 297 | Cc1cc2nc(-c3ccc(C(=O)NNC(=S)Nc4ccc(C(F)(F)F)cc4)cc3)[nH]c2cc1C
35 to 297 | Cc1cccc(NC(=S)NNC(=O)c2ccc(-c3nc4cc(C)c(C)cc4[nH]3)cc2)c1
8.4 to 179 | Cc1cc2nc(-c3ccc(C(=O)N/N=C/c4ccccc4O)cc3)[nH]c2cc1C

target: Alpha glucosidase (Homo sapiens, UniProt O43451+P10253+P14410+Q2M2H8); assay: Inhibition of alpha-glucosidase (unknown origin); type: protein assay

IC50 [µM] | Structure (SMILES)
15 to 48 | COc1ccc(-c2nc(-c3ccccc3)c(-c3ccccc3)n2Cc2cn(CC(=O)Nc3ccc(Cl)cc3Cl)nn2)cc1OC
4.3 to 43 | O=C(C[C@@H](c1ccc(Br)cc1)c1c[nH]c2ccccc12)c1ccccc1
20 to 292 | Cc1[nH]c2ccccc2c1-c1nnc(-c2ccc(C(c3cn(C)c4ccccc34)c3cn(C)c4ccccc34)cc2)o1
4.3 | O=C(C[C@@H](c1c(Cl)cccc1Cl)c1c[nH]c2ccccc12)c1ccccc1
4.3 to 43 | O=C(C[C@@H](c1ccc(Cl)cc1Cl)c1c[nH]c2ccccc12)c1ccccc1
20 to 292 | Clc1ccc2[nH]cc(C(c3ccc(-c4nnc(-c5c[nH]c6ccccc56)o4)cc3)c3c[nH]c4ccc(Cl)cc34)c2c1
2.2 to 83 | CCCCCCCCCCCC(=O)N/N=C1\C(=O)Nc2ccccc21
5 to 16 | CCOC(=O)CC(=O)OCC [MALONIC ACID DIETHYL ESTER]
15 to 48 | COc1ccc(NC(=O)Cn2cc(Cn3c(-c4cccs4)nc(-c4ccccc4)c3-c3ccccc3)nn2)cc1
4.3 to 43 | O=C(C[C@@H](c1ccccc1)c1c[nH]c2ccccc12)c1ccccc1
4.3 to 43 | COc1ccc([C@H](CC(=O)c2ccccc2)c2c[nH]c3ccccc23)cc1
20 to 292 | Cc1[nH]c2ccccc2c1-c1nnc(-c2ccc(C(c3c[nH]c4ccc(Br)cc34)c3c[nH]c4ccc(Br)cc34)cc2)o1
0.17 | CCn1c2ccccc2c2cc(NC(=O)CSc3nc4ccccc4[nH]3)ccc21
15 to 48 | O=C(Cn1cc(Cn2c(-c3ccc(Br)cc3)nc(-c3ccccc3)c2-c2ccccc2)nn1)Nc1ccc(F)cc1
15 to 48 | Cc1ccccc1NC(=O)Cn1cc(Cn2c(-c3cccc(F)c3)nc(-c3ccccc3)c2-c2ccccc2)nn1
20 to 292 | Cc1c(C(c2ccc(-c3nnc(-c4c[nH]c5ccccc45)o3)cc2)c2c(C)n(C)c3ccccc23)c2ccccc2n1C
20 to 292 | N#Cc1ccc2[nH]cc(C(c3ccc(-c4nnc(-c5c[nH]c6ccccc56)o4)cc3)c3c[nH]c4ccc(C#N)cc34)c2c1
20 to 292 | Cc1[nH]c2ccccc2c1-c1nnc(-c2ccc(C(c3c[nH]c4ccccc34)c3c[nH]c4ccccc34)cc2)o1
4.3 to 43 | Cc1ccc([C@H](CC(=O)c2ccc3ccccc3c2)c2c[nH]c3ccccc23)cc1
15 to 48 | COC(=O)c1ccc(-c2nc(-c3ccccc3)c(-c3ccccc3)n2Cc2cn(CC(=O)Nc3cc(Cl)ccc3Cl)nn2)cc1

IC50 [µM] | Structure (SMILES)
15 to 48 | O=C(Cn1cc(Cn2c(-c3ccc(F)cc3)nc(-c3ccccc3)c2-c2ccccc2)nn1)Nc1ccc(Cl)cc1Cl
15 to 48 | CCOc1ccc(NC(=O)Cn2cc(Cn3c(-c4cccc(Cl)c4)nc(-c4ccccc4)c3-c3ccccc3)nn2)cc1
4.3 | COc1ccc(Cc2nnc(-c3ccc(Cl)cc3)n2Cc2nn(CN3CCN(C)CC3)c(=S)o2)cc1
20 to 292 | Cc1[nH]c2ccccc2c1-c1nnc(-c2ccc(C(c3c(C)n(C)c4ccccc34)c3c(C)n(C)c4ccccc34)cc2)o1
20 to 292 | Cn1cc(C(c2ccc(-c3nnc(-c4c[nH]c5ccccc45)o3)cc2)c2cn(C)c3ccccc23)c2ccccc21
20 to 292 | Cc1c(C(c2ccc(-c3nnc(-c4cn(C)c5ccccc45)o3)cc2)c2c(C)n(C)c3ccccc23)c2ccccc2n1C
4.3 to 43 | O=C(C[C@@H](c1cccs1)c1c[nH]c2ccccc12)c1ccccc1
20 to 292 | Cn1cc(-c2nnc(-c3ccc(C(c4c[nH]c5ccc(Br)cc45)c4c[nH]c5ccc(Br)cc45)cc3)o2)c2ccccc21
4.3 to 43 | O=C(C[C@@H](c1ccc(Cl)cc1)c1c[nH]c2ccccc12)c1ccccc1
2.2 to 83 | O=C(Cc1ccc(Cl)c(Cl)c1)N/N=C1\C(=O)Nc2cc(Br)ccc21
4.3 to 43 | Cc1cccc([C@H](CC(=O)c2ccccc2)c2c[nH]c3ccccc23)c1
15 to 48 | CCOc1ccc(NC(=O)Cn2cc(Cn3c(-c4ccc(C(=O)OC)cc4)nc(-c4ccccc4)c3-c3ccccc3)nn2)cc1
15 to 48 | Cc1ccc(NC(=O)Cn2cc(Cn3c(-c4cccc(F)c4)nc(-c4ccccc4)c3-c3ccccc3)nn2)c(C)c1
15 to 48 | Cc1ccccc1NC(=O)Cn1cc(Cn2c(-c3ccc(Br)cc3)nc(-c3ccccc3)c2-c2ccccc2)nn1
4.3 to 43 | O=C(C[C@@H](c1ccc(Cl)cc1)c1c[nH]c2ccccc12)c1ccc2ccccc2c1
2.2 to 83 | O=C1Nc2cc(Br)ccc2/C1=N/NC(=O)c1ccccc1O
2 | Cn1cc(-c2nnc(-c3ccc(C(c4c[nH]c5ccccc45)c4c[nH]c5ccc(Cl)cc45)cc3)o2)c2ccccc21 (stereo not given)
4.3 to 43 | O=C(C[C@@H](c1cccc([N+](=O)[O-])c1)c1c[nH]c2ccccc12)c1ccccc1
4.3 to 43 | O=C(C[C@@H](c1ccccc1)c1c[nH]c2ccccc12)c1ccc2ccccc2c1
15 to 48 | Cc1ccc(NC(=O)Cn2cc(Cn3c(-c4cccc(Cl)c4)nc(-c4ccccc4)c3-c3ccccc3)nn2)c(C)c1

IC50 [µM] | Structure (SMILES)
20 to 292 | Cn1cc(-c2nnc(-c3ccc(C(c4cn(C)c5ccccc45)c4cn(C)c5ccccc45)cc3)o2)c2ccccc21
15 to 48 | CCOc1ccccc1NC(=O)Cn1cc(Cn2c(-c3ccccc3F)nc(-c3ccccc3)c2-c2ccccc2)nn1
15 to 48 | COc1ccc(NC(=O)Cn2cc(Cn3c(-c4cccc(Cl)c4)nc(-c4ccccc4)c3-c3ccccc3)nn2)cc1
2.2 | O=C(Cc1ccc(Cl)cc1Cl)N/N=C1\C(=O)Nc2cc(Br)ccc21
20 to 292 | Cn1cc(-c2nnc(-c3ccc(C(c4c[nH]c5ccc(Cl)cc45)c4c[nH]c5ccc(Cl)cc45)cc3)o2)c2ccccc21
15 to 48 | COc1ccccc1-c1nc(-c2ccccc2)c(-c2ccccc2)n1Cc1cn(CC(=O)Nc2ccc(C)cc2)nn1
20 to 292 | Cc1[nH]c2ccccc2c1-c1nnc(-c2ccc(C(c3c[nH]c4ccc(Cl)cc34)c3c[nH]c4ccc(Cl)cc34)cc2)o1
4.3 to 43 | O=C(C[C@@H](c1cccc(Br)c1)c1c[nH]c2ccccc12)c1ccccc1
4.3 to 43 | COc1ccc([C@H](CC(=O)c2ccc3ccccc3c2)c2c[nH]c3ccccc23)cc1
20 to 292 | Cn1cc(-c2nnc(-c3ccc(C(c4c[nH]c5ccccc45)c4c[nH]c5ccccc45)cc3)o2)c2ccccc21
20 to 292 | c1ccc2c(-c3nnc(-c4ccc(C(c5c[nH]c6ccccc56)c5c[nH]c6ccccc56)cc4)o3)c[nH]c2c1
20 to 292 | Cn1cc(-c2nnc(-c3ccc(C(c4c[nH]c5ccc(C#N)cc45)c4c[nH]c5ccc(C#N)cc45)cc3)o2)c2ccccc21
0.54 | O=C1NC(=O)/C(=C/c2ccc(-c3nc4ccccc4n3Cc3ccc(Cl)cc3)cc2)S1
20 to 292 | Cc1[nH]c2ccccc2c1-c1nnc(-c2ccc(C(c3c(-c4ccccc4)[nH]c4ccccc34)c3c(-c4ccccc4)[nH]c4ccccc34)cc2)o1
20 to 292 | Cc1[nH]c2ccccc2c1-c1nnc(-c2ccc(C(c3c[nH]c4ccc(C#N)cc34)c3c[nH]c4ccc(C#N)cc34)cc2)o1
2.2 to 83 | Cc1ccc(C(=O)N/N=C2\C(=O)Nc3ccc(Cl)cc32)cc1
20 to 292 | Cn1cc(-c2nnc(-c3ccc(C(c4c(-c5ccccc5)[nH]c5ccccc45)c4c(-c5ccccc5)[nH]c5ccccc45)cc3)o2)c2ccccc21
4.3 to 43 | Cc1ccc([C@H](CC(=O)c2ccccc2)c2c[nH]c3ccccc23)cc1
0.54 to 2.2 | O=C1CSC(=O)N1 [THIAZOLIDINEDIONE]
1.2 | O=C1Nc2cc(Cl)ccc2/C1=C/c1ccc(-c2nnc(-c3cc(O)cc(O)c3)o2)cc1

Structure (SMILES) | IC50 [µM]
COC(=O)CC(C)=O | 19 to 25
CCCN1C(=O)/C(=N\NC(=O)Cc2ccc(Cl)cc2Cl)c2ccccc21 | 2.2 to 83
